Values quoted from earlier work as cited in patent US20140220152A1, “Compositions and Methods for Detecting, Treating, or Preventing Reductive Stress” (University of Utah Research Foundation, priority 2007, published 2014).

Assays:
[1] = biological target: mammalian glucose-6-phosphate dehydrogenase (G6PDH) (Homo sapiens, UniProt P11413)
[2] = rodents
[3] = humans taking repeated doses of 250 mg disulfuram daily

Sequence of mammalian glucose-6-phosphate dehydrogenase (G6PDH) (P11413 whole entry): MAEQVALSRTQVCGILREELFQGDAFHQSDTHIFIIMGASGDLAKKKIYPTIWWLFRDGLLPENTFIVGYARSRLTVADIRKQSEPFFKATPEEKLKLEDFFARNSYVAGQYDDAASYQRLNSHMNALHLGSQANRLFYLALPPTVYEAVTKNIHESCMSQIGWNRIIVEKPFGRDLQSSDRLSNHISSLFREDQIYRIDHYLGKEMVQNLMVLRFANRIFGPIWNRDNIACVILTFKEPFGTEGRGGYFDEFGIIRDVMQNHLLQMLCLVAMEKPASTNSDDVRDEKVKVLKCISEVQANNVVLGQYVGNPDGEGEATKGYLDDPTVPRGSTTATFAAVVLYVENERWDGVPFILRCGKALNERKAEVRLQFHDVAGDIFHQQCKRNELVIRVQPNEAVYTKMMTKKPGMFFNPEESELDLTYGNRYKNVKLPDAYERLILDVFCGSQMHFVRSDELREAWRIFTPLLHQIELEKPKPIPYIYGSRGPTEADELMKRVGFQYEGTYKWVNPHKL

SMILES	inhibition of mammalian G6PDH [1]	LD50 [2]	Steady-state serum levels [3]
C[C@]12CC[C@H](O)C[C@@H]1CC[C@@H]1[C@@H]2CC[C@]2(C)C(=O)[C@H](Br)C[C@@H]12 [16α-bromoepiandrosterone]	more potent inhibitor of mammalian G6PDH than DHEA	–	–
C[C@]12CC[C@H](O)CC1=CC[C@@H]1[C@@H]2CC[C@]2(C)C(=O)CC[C@@H]12 [DHEA, Dehydroepiandrosterone]	potent non-competitive inhibitor	–	–
CCN(CC)C(=S)SSC(=S)N(CC)CC [Disulfuram, tetraalkylthiuram disulfide]	–	8600 mg/kg	approximately 1.3 μM
